Here are results for 21 compounds from PubChem BioAssay (NCI).

Values joined by “and” are separate entries in the source; they are usually repeats but may differ in a detail not shown here. Equal values may be shown once.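 Method: 48-hour compound exposure of cells in 96-well plates, five concentrations, linear interpolation of endpoints. Here, GI50 denotes the concentration required for 50% inhibition of growth. TGI: concentration producing complete growth inhibition.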

Some test systems named below: SNB-78 CNS; HOP-18 NSCLC; M19-MEL melanoma; 786-0 renal; DMS 273 small cell lung; COLO 205 colon; NCI/ADR-RES ovarian; T-47D breast; HS 578T breast; MDA-MB-231 breast.
Common to all, as to assay: NCI tumour cell line growth inhibition, 48 h

For the compound `CCOC(=O)c1ccc(/C(C)=N/NC(N)=S)cc1`, the TGI in the assay with SNB-78 CNS, in the assay on HOP-18 NSCLC, in the assay with M19-MEL melanoma, with 786-0 renal, in the assay with DMS 273 small cell lung and in the assay on COLO 205 colon was over 100 µM each time.

As for `O=C(Nc1cccc(Cl)c1)C(=O)C(C(=O)c1ccc2ccccc2c1)C1OC(=O)c2ccccc21` (configuration not stated), the TGI with SNB-78 CNS was 50.6 µM; in the assay on HOP-18 NSCLC it was 28.2 µM; in the assay with M19-MEL melanoma it was 39.1 µM; in the assay on 786-0 renal, 22.9 µM; in the assay on DMS 273 small cell lung, 89.6 µM; with COLO 205 colon it was 38.1 µM.

Take `CCOC(=O)N[C@H]1CCc2cc(OC)c(OC)c(OC)c2-c2ccc(SC)c(=O)cc21`: the TGI in the assay with SNB-78 CNS is over 100 µM; with NCI/ADR-RES ovarian, over 100 µM; with HOP-18 NSCLC, over 100 µM; in the assay with T-47D breast, over 100 µM; in the assay with 786-0 renal, 45.7 µM and > 100 µM; in the assay on DMS 273 small cell lung, over 100 µM. Moreover, in the assay on HS 578T breast, the TGI is over 100 µM. Also, in the assay with NCI/ADR-RES ovarian, the GI50 is 31.9 nM.

Take `COc1c(O)c2c(=O)cc3c4c5c(cc(=O)c6c(O)c(OC)c(CC(C)O)c(c(c1CC(C)O)c24)c65)OCO3` (configuration not stated): the TGI in the assay with SNB-78 CNS stood at 8.04 µM; with HOP-18 NSCLC, 8.3 µM; in the assay with M19-MEL melanoma it was 2.08 µM; in the assay with 786-0 renal it was 11.1 µM; with DMS 273 small cell lung, 3.26 µM; in the assay with COLO 205 colon, 0.765 µM.

Consider `Cc1nc(Nc2ccc(Cl)cc2)sc1C(=O)NNC(=S)NN`, for which the TGI was 57.2 µM in the assay on SNB-78 CNS; 33.5 µM with HOP-18 NSCLC; 40.7 µM in the assay with M19-MEL melanoma; 30.2 µM in the assay with 786-0 renal; 36.2 µM in the assay with DMS 273 small cell lung; 43.6 µM with COLO 205 colon.

Take `CN(C)CCC(/C=C/c1ccccc1)=N\Nc1ccccc1`: the TGI was 14.7 µM with SNB-78 CNS; 16.6 µM in the assay with HOP-18 NSCLC; 3.63 µM in the assay with M19-MEL melanoma; 11.1 µM with 786-0 renal; 6.5 µM in the assay on DMS 273 small cell lung; 3.7 µM in the assay with COLO 205 colon.

Take `N#C/C(=C\c1ccc2ccccc2c1)C(=O)c1ccccc1`: the TGI with SNB-78 CNS was over 100 µM; in the assay with HOP-18 NSCLC, over 100 µM; with T-47D breast, over 100 µM; in the assay with M19-MEL melanoma it was over 100 µM; in the assay with 786-0 renal it was over 85.5 µM; in the assay on DMS 273 small cell lung, over 100 µM. For the same compound, the TGI in the assay on HS 578T breast was 77.6 µM; in the assay with COLO 205 colon, over 100 µM.

As to `Cc1ccccc1C(=O)c1cc(O)ccc1O`, the TGI with SNB-78 CNS, in the assay on HOP-18 NSCLC, in the assay with M19-MEL melanoma, in the assay with 786-0 renal, in the assay with DMS 273 small cell lung and in the assay with COLO 205 colon was over 100 µM each time.

With `Cc1c(N(C)C)ccc2c(=O)c3cccc(CC(=O)O)c3oc12`, the TGI in the assay with SNB-78 CNS, in the assay with NCI/ADR-RES ovarian, in the assay with HOP-18 NSCLC, in the assay with T-47D breast, with M19-MEL melanoma and in the assay on 786-0 renal was over 100 µM throughout. The TGI in the assay on DMS 273 small cell lung is over 100 µM; in the assay on HS 578T breast, over 100 µM; with COLO 205 colon, over 100 µM; in the assay with MDA-MB-231 breast it was over 100000 nM.

`CCCCCCCCCCCCCCCC(=O)OCCOCCOCCOCc1ccccc1`: the TGI in the assay on SNB-78 CNS, in the assay on HOP-18 NSCLC, in the assay with M19-MEL melanoma, in the assay with 786-0 renal, with DMS 273 small cell lung and in the assay on COLO 205 colon was over 100 µM each time.

With `C#CC1/C(=C\C(=O)OC)CCCC1O` (configuration not stated), the TGI in the assay on SNB-78 CNS, with HOP-18 NSCLC, in the assay on M19-MEL melanoma, with 786-0 renal, in the assay on DMS 273 small cell lung and with COLO 205 colon was over 100 µM in each case.

Regarding `CC(C)(C)c1cc(C(P(=O)(O)O)P(=O)(O)O)cc(C(C)(C)C)c1O`, the TGI in the assay on SNB-78 CNS, in the assay with HOP-18 NSCLC, in the assay with M19-MEL melanoma, in the assay with 786-0 renal and with DMS 273 small cell lung was over 100 µM in each case.

Regarding `Cc1ccc(C)c(NC(=O)c2cccc([N+](=O)[O-])c2O)c1`, the TGI is 56.9 µM in the assay on SNB-78 CNS; over 100 µM in the assay on HOP-18 NSCLC; 82.1 µM with M19-MEL melanoma; over 100 µM in the assay with 786-0 renal; 77.5 µM in the assay with DMS 273 small cell lung; 31.1 µM in the assay with COLO 205 colon.

For the compound `O=C1N=C2Sc3ccc4ccccc4c3N2C1=O`, the TGI with SNB-78 CNS was 79.5 µM; with HOP-18 NSCLC it was 33 µM; in the assay on M19-MEL melanoma, over 100 µM; in the assay with 786-0 renal, 36.1 µM; in the assay on DMS 273 small cell lung, 53.2 µM; with COLO 205 colon, over 100 µM.

Consider `CN(C)C(=S)/N=c1\sn(C)/c(=N\C(=S)N(C)C)n1C`, for which the TGI in the assay with SNB-78 CNS was over 100 µM; in the assay with HOP-18 NSCLC it was over 100 µM; in the assay with M19-MEL melanoma, 69.7 µM; in the assay with 786-0 renal, over 100 µM; with DMS 273 small cell lung, over 100 µM; with COLO 205 colon, over 100 µM.

In the case of `COC(=O)/C(C#N)=C1\N=NNN1c1ccc(OC)cc1`, the TGI in the assay with SNB-78 CNS, in the assay on HOP-18 NSCLC, with M19-MEL melanoma, with 786-0 renal, in the assay with DMS 273 small cell lung and with COLO 205 colon was over 100 µM each time.

`COc1ccc2c(c1OCC(=O)O)C(=O)C(CCC(=O)O)CC2` (configuration not stated): the TGI with SNB-78 CNS, with HOP-18 NSCLC, in the assay on M19-MEL melanoma, in the assay on 786-0 renal, with DMS 273 small cell lung and with COLO 205 colon was over 100 µM throughout.

As for `COC1C(OC(=S)Nc2ccccc2)c2ccccc2N1C(C)=O` (configuration not stated), the TGI with SNB-78 CNS, with HOP-18 NSCLC, in the assay with M19-MEL melanoma, with 786-0 renal, in the assay on DMS 273 small cell lung and in the assay with COLO 205 colon was over 100 µM in each case.

For `CC(C)C1=Cc2ccc3c(c2C(=O)C1=O)CCCC3(C)C`, the TGI with SNB-78 CNS worked out at 16.6 µM; in the assay with HOP-18 NSCLC it was 6.27 µM; in the assay with M19-MEL melanoma, 6.99 µM; in the assay with 786-0 renal it was 10.5 µM; with DMS 273 small cell lung it was 14.8 µM; in the assay on COLO 205 colon it was 14.5 µM.

For the compound `CCC[CH2][Sn]([CH2]CCC)([O]C(=O)c1ccc(OC)c(OC)c1OC)[O][Sn]([CH2]CCC)([CH2]CCC)[O]C(=O)c1ccc(OC)c(OC)c1OC`, the GI50 was 39.2 nM with SNB-78 CNS; 843 nM in the assay with NCI/ADR-RES ovarian; 270 nM in the assay with HOP-18 NSCLC; 31.1 nM in the assay with T-47D breast; 210 nM in the assay on M19-MEL melanoma; 176 nM with 786-0 renal. Also, the GI50 is 334 nM in the assay on DMS 273 small cell lung, 282 nM in the assay with HS 578T breast, 270 nM in the assay with COLO 205 colon and 586 nM in the assay on MDA-MB-231 breast. The TGI is 0.211 µM in the assay with SNB-78 CNS; 2.14 µM in the assay on NCI/ADR-RES ovarian; 0.473 µM in the assay with HOP-18 NSCLC; 0.295 µM with T-47D breast; 1.05 µM with M19-MEL melanoma; 0.456 µM in the assay on 786-0 renal. The TGI came out at 1.54 µM with DMS 273 small cell lung, 1.81 µM in the assay with HS 578T breast, 0.917 µM in the assay on COLO 205 colon and 1890 nM with MDA-MB-231 breast.

Regarding `c1ccc2c(OCCSCCCCCCCCCCSCCOc3cccc4ccccc34)cccc2c1`, the TGI with SNB-78 CNS, in the assay on HOP-18 NSCLC, with M19-MEL melanoma, in the assay with 786-0 renal, in the assay on DMS 273 small cell lung and in the assay on COLO 205 colon was over 100 µM throughout.
